Results reported in publication PMC7915527, “Development of a Liquid Chromatography/Mass Spectrometry-Based Inhibition Assay for the Screening of Steroid 5-α Reductase in Human and Fish Cell Lines” (Molecules, 2021).
“And” between values parts separate entries of the source, which are not always exact repeats. Equal entries are not always repeated. Where two headings read alike, the source gives them in different places.

Columns and labels:
5AR in ZFL cells = assay: Cell-based 5AR activity/inhibition assay in zebrafish liver cells (ZFL)
Protocol: (§1) For the calculation of KM for optimized assay conditions, ZFL and RTG-2 cells were treated with testosterone in increments of 0 to 50 µM. The DHT levels were measured (Figure 5a). Based on the calculated KM values, inhibition assays were conducted (Figure 5b).
(§2) HEK-293, LNCaP, DU-145, SW-13, and ZFL cell lines were obtained from the American Type Culture Collection (ATCC; Manassas, VA, USA) and cultured according to their instructions. The HEK-293 cells were cultured in a high-glucose DMEM that contained 10% FBS, 100 units/mL penicillin, and 100 µg/mL streptomycin. The DU-145 cells were cultured in EMEM that contained 10% FBS, 100 units/mL penicillin, and 100 µg/mL streptomycin. The LNCaP cells were cultured in RPMI 1640 that contained 10% FBS, 100 units/mL penicillin, and 100 µg/mL streptomycin at 37 °C in 5% CO2. SW-13 cells were cultured in Leibovitz’s L-15 medium with 10% FBS at 37 °C without CO2. ZFL cells were cultured in a complete medium that was composed of 50% L-15, 35% DMEM medium, and 15% F12 medium that contained […] sodium bicarbonate, 15 mM HEPES, 0.01 mg/mL bovine insulin, 50 ng/mL mouse EGF, 5% FBS, and 0.5% trout serum at 28 °C without CO2. RTG-2 cells were obtained from Prof. Kristin Schirmer (EAWAG, Switzerland) and cultured in the L-15 medium with 5% FBS, 100 units/mL penicillin, and 100 µg/mL streptomycin at 20 °C without CO2.
(§3) All cells were seeded on a 24-well plate. The seeding densities of the DU-145, LNCaP, and SW-13 cells were 0.5 × 10^5 cells per well. The ZFL and RTG-2 cells were seeded at densities of 1.0 × 10^5 cells and 2.0 × 10^5 cells, respectively. After overnight culture, the culture media was aspirated from each well and treated with testosterone that was diluted in the complete medium for 3 h and 6 h. In the case of transiently transfected HEK-293 cells, the testosterone treatment was applied after transient overexpression under the same conditions as other cell lines. The treated media were collected from each well and centrifuged at 3000× g for 5 min at 4 °C. The supernatants were stored at −80 °C until needed. […] The seeding conditions of all cells were the same as those previously described. After overnight culture, the culture medium was aspirated, and the cells were cotreated with a medium that contained testosterone and inhibitors for 3 h. The medium was collected from each well and centrifuged at 3000× g for 5 min at 4 °C. The supernatants were stored at −80 °C until analysis.
A method that was modified by was used for DHT extraction from the samples. […]
(§4) The extracts were analyzed for DHT via ultra-performance LC-MS/MS (Agilent 1200/6460C QQQMSD coupled Jet Stream technology electrospray ion (ESI) source; Agilent Technologies, Santa Clara, CA, USA).

5AR in RTG-2 cells = assay: Cell-based 5AR activity/inhibition assay in rainbow trout gonad cells (RTG-2)
Protocol: as §1, §2, §3
A method that was modified by was used for DHT extraction from the samples. Each sample, which included the calibration, QC, and assay medium, was placed in 1.5 mL PP tubes and spiked with a 0.5 ng/mL DHT-D3 internal standard prior to extraction. All sample tubes were vortexed for 5 s, and the samples were extracted using a liquid-liquid extraction (LLE) method via the addition of 600 µL of MTBE. The samples were vortexed and centrifuged at 4500× g rpm for 5 min, and the organic phase was transferred into glass tubes. The extraction step was repeated once, and the organic phase extracts were dried under a stream of nitrogen. After the samples were dried, 100 µL of the derivatization reagent and 100 µL of TEA were added for DHT derivatization. […]
as §4

[1] = biological target: rat and human 5α-reductase; set-up: method as in PMID 14753249, PMID 8645628, PMID 7734404, PMID 9605412, PMID 16818707; settings: ref [14],[43],[44],[45],[46],[47]; cited from earlier work
SRD5A1 = biological target: T1, SRD5A1 (Homo sapiens, UniProt P18405); assay: Cell-based 5AR activity/inhibition assay in HEK-293 cells transiently overexpressing SRD5A1; settings: IC50 Value, SRD5A1-overexpressing HEK-293 cells; testosterone at KM, 3 h; 95% CI in parentheses
T1 sequence (P18405 1-259): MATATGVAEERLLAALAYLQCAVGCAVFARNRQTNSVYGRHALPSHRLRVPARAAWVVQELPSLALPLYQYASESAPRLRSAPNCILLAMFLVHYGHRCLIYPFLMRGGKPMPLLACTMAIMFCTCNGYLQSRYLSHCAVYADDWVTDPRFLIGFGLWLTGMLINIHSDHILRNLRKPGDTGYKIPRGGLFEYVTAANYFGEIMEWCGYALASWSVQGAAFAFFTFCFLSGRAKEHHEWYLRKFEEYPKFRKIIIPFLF
Protocol: (§5) For the calculation of KM, testosterone was added in increments of 0 to 50 µM to non-vector- and SRD5A1-HEK293 cells and in increments of 0 to 10 µM to SRD5A2-HEK293 cells 24 h after transfection. The DHT levels were measured (Figure 4a). […] The IC50 values were calculated (Table 3).
(§6) Transient overexpression was induced using transfection of cDNA with lipofectamine (Thermo Fisher Scientific, Waltham, MA, USA). HEK-293 cells were seeded in 24-well plates at a density of 10^5 cells per well and incubated at 37 °C in an atmosphere of 5% CO2. After overnight culture, 500 ng of cDNA and 0.75 µL of the Lipofectamine 3000 reagent were diluted in the Opti-MEM medium and incubated for 15 min for DNA-lipid complex formation. The DNA-lipid complex was added to the wells and incubated for 6 h. After incubation, the sample-treated medium was changed to the complete culture medium and incubated for 18 h.
(§7) All cells were seeded on a 24-well plate. The seeding densities of the DU-145, LNCaP, and SW-13 cells were 0.5 × 10^5 cells per well. The ZFL and RTG-2 cells were seeded at densities of 1.0 × 10^5 cells and 2.0 × 10^5 cells, respectively. […]
(§8) The extracts were analyzed for DHT via ultra-performance LC-MS/MS (Agilent 1200/6460C QQQMSD coupled Jet Stream technology electrospray ion (ESI) source; Agilent Technologies, Santa Clara, CA, USA). […]

SRD5A2 = biological target: T2, SRD5A2 (Homo sapiens, UniProt P31213); assay: Cell-based 5AR activity/inhibition assay in HEK-293 cells transiently overexpressing SRD5A2; settings: 95% CI in parentheses
T2 sequence (P31213 1-254): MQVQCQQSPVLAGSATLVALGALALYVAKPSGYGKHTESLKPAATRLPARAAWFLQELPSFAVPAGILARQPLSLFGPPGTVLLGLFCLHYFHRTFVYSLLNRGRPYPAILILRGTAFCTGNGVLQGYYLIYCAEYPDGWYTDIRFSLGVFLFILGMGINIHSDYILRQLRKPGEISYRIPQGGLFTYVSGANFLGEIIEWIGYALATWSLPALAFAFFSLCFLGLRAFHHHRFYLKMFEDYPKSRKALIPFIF
Protocol: as §5, §6, §7, §8

[2] = biological target: T3, 5AR (SRD5A1) in DU-145 cells (Homo sapiens, UniProt P18405); settings: DHT formation from testosterone 0 to 10 µM, 95% CI in parentheses
T3 sequence (P18405 1-259): T1 sequence (P18405 1-259)

[3] = substrate: C[C@]12CC[C@H]3[C@@H](CCC4=CC(=O)CC[C@@]43C)[C@@H]1CC[C@@H]2O; assay: cells, lysate or membranes; settings: 95% CI in parentheses
[4] = read-out: IC50 Value, testosterone at KM, 3 h, 95% CI in parentheses
[5] = testosterone at KM, 3 h, 95% CI in parentheses, read-out: IC50 Value
[6] = testosterone 0 to 50 µM, 95% CI in parentheses
[7] = other: SRD5A2-HEK293 cells, testosterone 0 to 10 µM, 37.0 °C
[8] = other: LNCaP cells, testosterone 0 to 10 µM
[9] = other: DU-145 cells, testosterone 0 to 10 µM
[10] = other: SRD5A1-HEK293 cells, testosterone 0 to 50 µM, 37.0 °C

C[C@]12C=CC(=O)N[C@@H]1CC[C@@H]1[C@@H]2CC[C@]2(C)[C@@H](C(=O)Nc3cc(C(F)(F)F)ccc3C(F)(F)F)CC[C@@H]12 [Dutasteride, dutasteride]
IC50 (5AR in ZFL cells; [4]): 7.33 nM
IC50 (5AR in RTG-2 cells; [4]): 13.2 nM
IC50 [1]: 0.2 to 7 nM
IC50 (SRD5A1): 1.27 nM
IC50 (SRD5A2; IC50 Value, SRD5A2-overexpressing HEK-293 cells, testosterone at KM, 3 h): 1.19 nM

CC(C)(C)NC(=O)[C@H]1CC[C@H]2[C@@H]3CC[C@H]4NC(=O)C=C[C@]4(C)[C@H]3CC[C@]12C [Finasteride, finasteride]
IC50 (5AR in ZFL cells; [5]): 142 nM
IC50 (5AR in RTG-2 cells; testosterone at KM, 3 h, 95% CI in parentheses, listed as finasteride, read-out: IC50 Value): 2460 nM
IC50 (5AR in RTG-2 cells; [5]): 2670 nM

C[C@]12CC[C@H]3[C@@H](CCC4=CC(=O)CC[C@@]43C)[C@@H]1CC[C@@H]2O [testosterone]
Km (5AR in ZFL cells; [6]): 0.46 nM
Vmax (5AR in ZFL cells; [6]): 116.6 nmol L^−1 h^−1 and 116.60 (106.9–126.9) nmol L^−1 h^−1
Km (5AR in RTG-2 cells; [6]): 1.12 nM
Vmax (5AR in RTG-2 cells; [6]): 13.09 (11.88–14.37) nmol L^−1 h^−1
Vmax (SRD5A2; SRD5A2-HEK293 cells, testosterone 0 to 10 µM): 22.52 nmol/L/h
Vmax [2]: 75.55 nmol/L/h

B1: SRD5A2 (Homo sapiens) (protein)
chain: T2 sequence (P31213 1-254)
Km [3, 7]: 0.36 (0.18–0.65) nM
Vmax [3, 7]: 0.000375 µM/min

B2: 5AR (SRD5A1) in LNCaP cells (Homo sapiens) (protein)
chain: T1 sequence (P18405 1-259)
Km [3, 8]: 15.10 (12.35–19.25) nM
Vmax [3, 8]: 0.000644 µM/min

B3: 5AR (SRD5A1) in DU-145 cells (Homo sapiens) (protein)
chain: T1 sequence (P18405 1-259)
Km [3, 9]: 9.15 (7.01–12.81) nM
Vmax [3, 9]: 0.00126 µM/min

B4: SRD5A1 (Homo sapiens) (protein)
chain: T1 sequence (P18405 1-259)
Km [3, 10]: 2.29 (1.70–3.09) nM
Vmax [3, 10]: 0.000143 µM/min
